Tested on: anti-AQP5 autoantibodies
Assay: Indirect immunofluorescence (IIF) assay: AQP5 staining by human serum/IgG pre-incubated with peptide
Assay type: binding
Details: for inhibition of anti-AQP5 autoantibodies from the control group: by comparison of the mean signal intensities (Fig. 2B); for frequency of recognition by SS vs control samples: seven peptides originating from the AQP5 sequence
Excerpt: This study was done in compliance with the Helsinki Declaration after approvals from the Institutional Review Board of Seoul National University Hospital (IRB number: 0912-011-302) and the Institutional Review Board of Seoul St. Mary's Hospital (IRB number: KC13ONMI0646). From our previous study (12), 13 control and 24 SS serum samples positive for anti-AQP5 IgG were chosen based on the levels of anti-AQP5 IgG and availability. The first 12 control and 12 SS samples had similar low levels of anti-AQP5 IgG, while the rest of the samples had intermediate to high levels. IgG antibodies were purified using a protein A column (ThermoFisher Scientific, Waltham, MA, USA) from the sera of 3 SS patients who were not included in the previous study. A commercial human IgG product purified from pooled normal sera (Sigma-Aldrich Korea, Seoul, Korea) was used as control. All SS patients fulfilled the 2002 American-European Consensus group classification criteria and/or the 2012 American College of Rheumatology criteria. Madin-Darby canine kidney (MDCK) cells expressing full-length human AQP5 (MDCK-AQP5) were maintained in DMEM medium with 10% FBS and 1% penicillin/streptomycin in the presence of G418 (12). A mixture of non-transfected MDCK and MDCK-AQP5 cells (6 × 10^4) was plated onto collagen-coated coverslips of 12 mm diameter. After stimulation with 0.5 mM cAMP for 24 hours, the cells were fixed with 4% paraformaldehyde in PBS (pH 7.4) and subjected to antigen retrieval by incubation in sodium citrate buffer (10 mM sodium citrate, 0.05% Tween-20, pH 6) at 105 °C for 20 min. After blocking with 5% BSA in PBS, the cells were incubated with goat polyclonal antibodies raised against a peptide near the C-terminus of human AQP5 (Santa Cruz, Paso Robles, CA, USA) along with control/SS sera (1:200 dilution) or purified IgG (10 µg) that were pre-incubated overnight with 10 µg synthetic peptides in RIA buffer (10 mM Tris-HCl, 350 mM NaCl, 1% BSA, 1% Triton X-100, 0.5 % Sodium deoxycholate, 0.1% SDS, 10% Horse serum, pH 7.6). Subsequently, the cells were stained with Alexa Fluor 488-conjugated donkey anti-goat IgG (Invitrogen, Carlsbad, CA, USA) and CF™ 594-conjugated rabbit anti-human IgG (Sigma-Aldrich). At least four images of AQP5-expressing cells were randomly selected, based on the goat anti-AQP5 antibody stain, and imaged sequentially for the staining with human IgG using a confocal microscope (Carl Zeiss, Jena, Germany). After coding the images, two individuals blindly determined the relative intensities of the anti-AQP5 human IgG signals by decreasing the brightness of the red signal until all the signals of AQP5 stain disappeared. […] The mean of the Δ brightness was used to express the anti-AQP5 IgG level in each sample. The differences in proportion between two groups were determined by Fisher's exact test. Differences in means between the experimental and control groups were determined by Student's t-test, while the differences among peptides were determined by Oneway ANOVA. All statistical analyses were performed using SPSS (SPSS Inc., Chicago, USA). To analyze the epitopes recognized by anti-AQP5 autoantibodies, MDCK-AQP5 cells were double stained with goat anti-AQP5 antibodies and serum from either control subjects or SS patients that were pre-incubated with each peptide (Fig. 2A). The intensity of AQP5 staining by human IgG in the presence of each peptide was expressed as the percentage of control conditions in the absence of peptides (Table 2). Because the normalized intensities of AQP5 staining in the presence of IRP varied from 69 to 173 depending on the sample, signal intensities smaller than 62.2, which is the mean - 2SD of values in the presence of IRP, were regarded as being inhibited by the corresponding peptide.

Sequence	inhibition of anti-AQP5 autoantibodies from the control group	frequency of recognition by SS vs control samples	control samples inhibited by / recognizing the peptide (14 control samples (13 sera, 1 control-IgG), inhibited = signal intensity smaller than 62.2)	SS samples inhibited by / recognizing the peptide (27 SS samples (24 sera, 3 purified IgG), inhibited = signal intensity smaller than 62.2)
CMNPARSFGC (Epitope of AQP5 Extracellular loop E with Cystein added at N- and C- term) [E2, Extracellular loop E aa 184-191 with added terminal cysteines]	significantly inhibited	more frequently recognized by SS than by control samples	–	–
GCSMNPARSFGC (Epitope of AQP5 Extracellular loop E with Cystein added at C- term) [peptide E1, Extracellular loop E aa 181-191 with C-terminal cysteine added]	significantly inhibited	most frequently recognized	2 of 14	20 of 27

Source: patent publication EP3611183B1, “EPITOPE PEPTIDE SPECIFICALLY RECOGNIZING AUTOANTIBODY AGAINST AQUAPORIN 5, AND USE THEREOF” (Seoul National University R & DB Foundation, priority 2017, dated 2023)
